According to the supplement of paper PMC8253809:

Columns and labels:
DIPGX29 = H3.3 K27M diffuse intrinsic pontine glioma line; experiment: growth inhibition relative to DMSO (0) and positive control (1) (fraction); higher = more growth inhibition
Procedure: (§1)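 Paxalisib (GDC0084) x mirdametinib (PD0325901) dose matrix on pHGG cell lines and astrocyte controls, 7 days, adherent 384-well. CellTiter-Glo RLU was normalised (no log2) to fractional activity between DMSO (0) and the positive control (1). Each combination was tested in two plate orientations.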

DIPGX37 = H3.3 K27M diffuse intrinsic pontine glioma line; experiment: as above
Procedure: as §1

O=C(NOC[C@H](O)CO)c1ccc(F)c(F)c1Nc1ccc(I)cc1F + CC1(C)OCCn2c1nc1c(N3CCOCC3)nc(-c3cnc(N)nc3)nc12 [GDC0084]
growth inhibition
Details | compound 1 concentration 0.009766 µM | compound 1 concentration 0.01953 µM | compound 1 concentration 0.03906 µM | compound 1 concentration 0.07812 µM | compound 1 concentration 0.15625 µM | compound 1 concentration 0.3125 µM | compound 1 concentration 0.625 µM | compound 1 concentration 1.25 µM | compound 1 concentration 5 µM | compound 1 concentration 20 µM
DIPGX29, compound 2 concentration 0.03906 µM | 0.638 | 0.646 | 0.648 | 0.701 | 0.69 | 0.738 | 0.748 | 0.755 | 0.895 | 0.958
DIPGX29, compound 2 concentration 0.07812 µM | 0.15 | 0.207 | 0.157 | 0.241 | 0.208 | 0.306 | 0.424 | 0.498 | 0.796 | 0.919
DIPGX29, compound 2 concentration 0.15625 µM | 0.213 | 0.194 | 0.204 | 0.242 | 0.215 | 0.307 | 0.451 | 0.518 | 0.813 | 0.909
DIPGX29, compound 2 concentration 0.3125 µM | 0.306 | 0.272 | 0.343 | 0.357 | 0.359 | 0.415 | 0.506 | 0.652 | 0.859 | 0.947
DIPGX29, compound 2 concentration 0.625 µM | 0.411 | 0.38 | 0.431 | 0.462 | 0.487 | 0.495 | 0.632 | 0.697 | 0.917 | 0.981
DIPGX29, compound 2 concentration 1.25 µM | 0.531 | 0.526 | 0.609 | 0.603 | 0.627 | 0.625 | 0.79 | 0.803 | 0.952 | 0.985
DIPGX29, compound 2 concentration 5 µM | 0.911 | 0.936 | 0.919 | 0.945 | 0.966 | 0.973 | 0.966 | 0.993 | 0.999 | 1
DIPGX29, compound 2 concentration 20 µM | 0.933 | 0.947 | 0.948 | 0.968 | 0.964 | 0.984 | 0.989 | 0.996 | 1 | 1
DIPGX37, compound 2 concentration 0.03906 µM | -0.0653 | -0.109 | 0.00889 | 0.0388 | 0.199 | 0.341 | 0.484 | 0.642 | 0.948 | 0.988
DIPGX37, compound 2 concentration 0.07812 µM | 0.157 | 0.133 | 0.163 | 0.275 | 0.352 | 0.487 | 0.599 | 0.725 | 0.959 | 0.993
DIPGX37, compound 2 concentration 0.15625 µM | 0.264 | 0.281 | 0.316 | 0.412 | 0.485 | 0.618 | 0.728 | 0.829 | 0.983 | 0.997
DIPGX37, compound 2 concentration 0.3125 µM | 0.446 | 0.454 | 0.5 | 0.586 | 0.657 | 0.767 | 0.859 | 0.926 | 0.997 | 1
DIPGX37, compound 2 concentration 0.625 µM | 0.589 | 0.585 | 0.62 | 0.71 | 0.777 | 0.871 | 0.937 | 0.97 | 1 | 1
DIPGX37, compound 2 concentration 1.25 µM | 0.75 | 0.791 | 0.815 | 0.864 | 0.908 | 0.951 | 0.976 | 0.996 | 1 | 1
DIPGX37, compound 2 concentration 5 µM | 0.965 | 0.975 | 0.988 | 0.995 | 0.999 | 1 | 1 | 1 | 1 | 1
DIPGX37, compound 2 concentration 20 µM | 0.996 | 0.998 | 0.998 | 0.996 | 0.998 | 0.997 | 0.997 | 0.997 | 0.998 | 1

CC1(C)OCCn2c1nc1c(N3CCOCC3)nc(-c3cnc(N)nc3)nc12 [GDC0084] + O=C(NOC[C@H](O)CO)c1ccc(F)c(F)c1Nc1ccc(I)cc1F [PD0325901]
growth inhibition
Details | compound 1 concentration 0.009766 µM | compound 1 concentration 0.01953 µM | compound 1 concentration 0.03906 µM | compound 1 concentration 0.07812 µM | compound 1 concentration 0.15625 µM | compound 1 concentration 0.3125 µM | compound 1 concentration 0.625 µM | compound 1 concentration 1.25 µM | compound 1 concentration 5 µM | compound 1 concentration 20 µM
DIPGX29, compound 2 concentration 0.03906 µM | 0.0494 | 0.0257 | 0.0988 | 0.197 | 0.244 | 0.304 | 0.508 | 0.598 | 0.891 | 0.96
DIPGX29, compound 2 concentration 0.07812 µM | 0.246 | 0.221 | 0.24 | 0.295 | 0.368 | 0.426 | 0.565 | 0.653 | 0.915 | 0.964
DIPGX29, compound 2 concentration 0.15625 µM | 0.138 | 0.16 | 0.18 | 0.286 | 0.308 | 0.402 | 0.515 | 0.704 | 0.92 | 0.97
DIPGX29, compound 2 concentration 0.3125 µM | 0.198 | 0.252 | 0.293 | 0.316 | 0.389 | 0.507 | 0.616 | 0.696 | 0.949 | 0.981
DIPGX29, compound 2 concentration 0.625 µM | 0.331 | 0.369 | 0.463 | 0.439 | 0.481 | 0.54 | 0.619 | 0.781 | 0.967 | 0.993
DIPGX29, compound 2 concentration 1.25 µM | 0.511 | 0.539 | 0.543 | 0.583 | 0.62 | 0.67 | 0.806 | 0.869 | 0.983 | 0.999
DIPGX29, compound 2 concentration 5 µM | 0.801 | 0.807 | 0.824 | 0.837 | 0.855 | 0.88 | 0.924 | 0.956 | 0.997 | 0.997
DIPGX29, compound 2 concentration 20 µM | 0.903 | 0.914 | 0.9 | 0.927 | 0.923 | 0.969 | 0.97 | 0.989 | 1 | 1
DIPGX37, compound 2 concentration 0.03906 µM | -0.147 | -0.0916 | -0.0557 | 0.033 | 0.217 | 0.429 | 0.588 | 0.762 | 0.979 | 1
DIPGX37, compound 2 concentration 0.07812 µM | -0.0133 | 0.012 | 0.0971 | 0.209 | 0.356 | 0.514 | 0.694 | 0.823 | 0.99 | 1
DIPGX37, compound 2 concentration 0.15625 µM | 0.0798 | 0.113 | 0.192 | 0.297 | 0.433 | 0.58 | 0.744 | 0.879 | 0.999 | 1
DIPGX37, compound 2 concentration 0.3125 µM | 0.186 | 0.271 | 0.3 | 0.445 | 0.556 | 0.699 | 0.84 | 0.924 | 1 | 1
DIPGX37, compound 2 concentration 0.625 µM | 0.277 | 0.368 | 0.441 | 0.522 | 0.6 | 0.787 | 0.891 | 0.948 | 1 | 1
DIPGX37, compound 2 concentration 1.25 µM | 0.458 | 0.508 | 0.592 | 0.657 | 0.743 | 0.882 | 0.953 | 0.984 | 1 | 1
DIPGX37, compound 2 concentration 5 µM | 0.832 | 0.876 | 0.906 | 0.917 | 0.94 | 0.986 | 1 | 1 | 1 | 1
DIPGX37, compound 2 concentration 20 µM | 0.97 | 0.98 | 0.984 | 0.994 | 0.997 | 1 | 1 | 1 | 1 | 1
